Earlier results, collected in patent US20120121615A1, “ALANINYL MAYTANSINOL ANTIBODY CONJUGATES” (priority 2010, published 2012).

## COc1cc2cc(c1Cl)N(C)C(=O)C[C@H](OC(=O)[C@H](C)N(C)C(C)=O)[C@]1(C)O[C@H]1[C@H](C)[C@@H]1C[C@@](O)(NC(=O)O1)[C@H](OC)/C=C/C=C(\C)C2 [maytansine]
2.0 mg/m^2 every 3 weeks, single dose or 3 consecutive days
  dose-limiting toxicity (DLT): gastrointestinal, consisting of nausea, vomiting, and diarrhea
At doses that could be safely delivered
  activity in the clinic: modest
